Measurements published in US20230149398A1, “TOPICAL PHARMACEUTICAL COMPOSITIONS COMPRISING IMIDAZO[1,2-B]PYRIDAZINE COMPOUNDS” (BenevolentAI Bio Limited, priority 2020, published 2023).

System: RHE cultures (ZenSkin)
Assay: RHE irritancy test (MTT viability of RHE cultures)
Format: cell-based
Settings: 30 μL applied for 1 hour, MTT after 42 hours, relative to negative control (water), n=3
Procedure: RHE cultures (ZenSkin®) (surface area=0.33 cm^2) were equilibrated overnight in a humidified incubator at 37° C. and 5% CO2. The next day RHE were removed from the incubator and inspected for residual liquid on the apical surface. Excess moisture was removed with sterile cotton swab and 30 μL of a topical pharmaceutical composition was applied to triplicate cultures (n=3). Sterile water served as a negative control and 1% Triton X-100 served as positive control. Once treated, RHE cultures were returned to the incubator for 1 hour and then gently washed to remove test substance. The washed inserts were then transferred to new 12 well plates prefilled with fresh 0.5 mL media. […]
After 42-hour incubation, the tissue cultures were transferred to a new plate containing fresh MTT substrate in tissue media and placed in the incubator at 37° C. and 5% CO2 for 2 hours. […] Optical density was measured at 570 nm without using a reference filter. […]
Percent cell viability was calculated as follows: 100×[OD(sample)/OD(neg control)]. […] The test formulations were classified as irritant or non-irritant based on EU and GHS classification, according to which an irritant (R38/Category 2) is determined if the mean relative tissue viability of tissues exposed to test material is reduced below 50% of the negative control.

**Q.** triton X-100 was tested. Which Mean percent viability did it give?
**A.** < 20%
